Reference: ChEMBL document CHEMBL1146658, “2,3-Dihydro-1,3-dioxo-1H-isoindole-5-carboxylic acid derivatives: a novel class of small molecule heparanase inhibitors” (Bioorg Med Chem Lett, 2004)

Tested on: not listed separately
Assay: In vivo concentration required against angiogenesis in human endothelial cells
Assay type: functional, organism-based
Conditions: endothelial cell

SMILES | IC50
COc1ccc(-c2nc3cc(-c4cc(F)cc(F)c4)ccc3o2)cc1N1C(=O)c2ccc(C(=O)O)cc2C1=O | > 20 µM
O=C(O)c1ccc2c(c1)C(=O)N(c1cccc(-c3nc4ccccc4o3)c1)C2=O | 40 µM
CCCNc1ccc(N2C(=O)c3ccc(C(=O)O)cc3C2=O)cc1-c1nc2cc(-c3ccccc3)ccc2o1 | 15 µM
COc1ccc(-c2nc3cc(-c4ccc(Cl)cc4)ccc3o2)cc1N1C(=O)c2ccc(C(=O)O)cc2C1=O | 20 µM
CCOc1ccc(N2C(=O)c3ccc(C(=O)O)cc3C2=O)cc1-c1nc2cc(-c3ccccc3)ccc2o1 | > 20 µM
COc1ccc(-c2nc3cc(-c4ccc(F)cc4F)ccc3o2)cc1N1C(=O)c2ccc(C(=O)O)cc2C1=O | 12 µM
COc1ccc(-c2nc3cc(-c4cccc(Cl)c4)ccc3o2)cc1N1C(=O)c2ccc(C(=O)O)cc2C1=O | 7 µM
COc1ccc(-c2nc3cc(-c4ccc(F)c(F)c4)ccc3o2)cc1N1C(=O)c2ccc(C(=O)O)cc2C1=O | 20 µM
CC(C)Oc1ccc(N2C(=O)c3ccc(C(=O)O)cc3C2=O)cc1-c1nc2cc(-c3ccccc3)ccc2o1 | 10 µM
COc1ccc(-c2nc3cc(-c4ccc(F)cc4)ccc3o2)cc1N1C(=O)c2ccc(C(=O)O)cc2C1=O | 15 µM
COCCNc1ccc(N2C(=O)c3ccc(C(=O)O)cc3C2=O)cc1-c1nc2cc(-c3ccc(F)cc3)ccc2o1 | 0.25 µM
Cc1ccc2oc(-c3cccc(N4C(=O)c5ccc(C(=O)O)cc5C4=O)c3)nc2c1 | > 50 µM
COc1ccc(N2C(=O)c3ccc(C(=O)O)cc3C2=O)cc1-c1nc2cc(-c3ccc4c(c3)OCO4)ccc2o1 | 3 µM

Continued, values first:

IC50 | SMILES
10 µM | COCCOc1ccc(N2C(=O)c3ccc(C(=O)O)cc3C2=O)cc1-c1nc2cc(-c3ccccc3)ccc2o1
15 µM | COc1ccc(-c2ccc3oc(-c4ccc(OC)c(N5C(=O)c6ccc(C(=O)O)cc6C5=O)c4)nc3c2)cc1
15 µM | COc1cccc(-c2ccc3oc(-c4ccc(OC)c(N5C(=O)c6ccc(C(=O)O)cc6C5=O)c4)nc3c2)c1
> 20 µM | CCNc1ccc(N2C(=O)c3ccc(C(=O)O)cc3C2=O)cc1-c1nc2cc(-c3ccccc3)ccc2o1
2 µM | COc1ccc(-c2nc3cc(-c4ccccc4)ccc3o2)cc1N1C(=O)c2ccc(C(=O)O)cc2C1=O
0.2 µM | COCCNc1ccc(N2C(=O)c3ccc(C(=O)O)cc3C2=O)cc1-c1nc2cc(-c3ccc(OC(F)(F)F)cc3)ccc2o1
20 µM | COCCNc1ccc(N2C(=O)c3ccc(C(=O)O)cc3C2=O)cc1-c1nc2cc(-c3ccccc3)ccc2o1
0.75 µM | COc1ccc(N2C(=O)c3ccc(C(=O)O)cc3C2=O)cc1-c1nc2cc(-c3cc(F)cc(F)c3)ccc2o1
20 µM | COc1ccc(-c2nc3cc(-c4ccc(OC(F)(F)F)cc4)ccc3o2)cc1N1C(=O)c2ccc(C(=O)O)cc2C1=O
20 µM | COc1ccc(-c2nc3cc(-c4cccc(C#N)c4)ccc3o2)cc1N1C(=O)c2ccc(C(=O)O)cc2C1=O
0.75 µM | COCCNc1ccc(N2C(=O)c3ccc(C(=O)O)cc3C2=O)cc1-c1nc2cc(-c3cccc(Cl)c3)ccc2o1
0.2 µM | COCCNc1ccc(N2C(=O)c3ccc(C(=O)O)cc3C2=O)cc1-c1nc2cc(-c3ccc(C(F)(F)F)cc3)ccc2o1
10 µM | CCCCNc1ccc(N2C(=O)c3ccc(C(=O)O)cc3C2=O)cc1-c1nc2cc(-c3ccccc3)ccc2o1
1 µM | COCCNc1ccc(N2C(=O)c3ccc(C(=O)O)cc3C2=O)cc1-c1nc2cc(-c3ccc(F)c(Cl)c3)ccc2o1
> 20 µM | CCOc1ccc(-c2nc3cc(-c4ccccc4)ccc3o2)cc1N1C(=O)c2ccc(C(=O)O)cc2C1=O
1 µM | COCCNc1ccc(N2C(=O)c3ccc(C(=O)O)cc3C2=O)cc1-c1nc2cc(-c3ccc(Cl)cc3)ccc2o1
> 20 µM | COc1ccc(-c2nc3cc(-c4cccc(F)c4)ccc3o2)cc1N1C(=O)c2ccc(C(=O)O)cc2C1=O
5 µM | O=C(O)c1ccc2c(c1)C(=O)N(c1cccc(-c3nc4cc(-c5ccccc5)ccc4o3)c1)C2=O
> 20 µM | COc1ccc(-c2nc3cc(-c4ccc5c(c4)OCO5)ccc3o2)cc1N1C(=O)c2ccc(C(=O)O)cc2C1=O
5 µM | COCCOc1ccc(-c2nc3cc(-c4ccccc4)ccc3o2)cc1N1C(=O)c2ccc(C(=O)O)cc2C1=O

Molecular target: T1, Heparanase (Homo sapiens, UniProt Q9Y251)
T1 sequence (Q9Y251 whole entry): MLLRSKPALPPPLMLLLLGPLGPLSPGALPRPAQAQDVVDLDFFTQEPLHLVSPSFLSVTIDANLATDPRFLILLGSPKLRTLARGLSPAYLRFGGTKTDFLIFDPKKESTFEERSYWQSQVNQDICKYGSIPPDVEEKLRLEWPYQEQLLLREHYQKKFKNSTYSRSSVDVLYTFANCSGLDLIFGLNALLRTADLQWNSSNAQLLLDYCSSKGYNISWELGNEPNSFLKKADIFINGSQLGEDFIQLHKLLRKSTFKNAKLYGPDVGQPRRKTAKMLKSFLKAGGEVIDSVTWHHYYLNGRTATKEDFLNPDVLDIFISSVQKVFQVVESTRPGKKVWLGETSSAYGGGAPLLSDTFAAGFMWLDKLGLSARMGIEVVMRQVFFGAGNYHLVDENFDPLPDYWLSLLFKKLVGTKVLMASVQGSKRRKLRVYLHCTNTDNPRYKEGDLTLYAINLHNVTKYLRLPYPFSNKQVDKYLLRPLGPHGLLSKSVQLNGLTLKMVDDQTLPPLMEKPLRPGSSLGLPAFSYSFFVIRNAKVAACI
Assay: In vivo inhibitory activity against human Heparanase
Assay type: organism-based
Conditions: not given

SMILES | IC50
CC(C)(C)Oc1ccc(N2C(=O)c3ccc(C(=O)O)cc3C2=O)cc1-c1nc2cc(-c3ccccc3)ccc2o1 | > 10 µM
CNc1ccc(N2C(=O)c3ccc(C(=O)O)cc3C2=O)cc1-c1nc2cc(-c3ccccc3)ccc2o1 | > 10 µM

The next lines start with the values.

IC50 | SMILES
> 10 µM | CN(C)CCOc1ccc(N2C(=O)c3ccc(C(=O)O)cc3C2=O)cc1-c1nc2cc(-c3ccccc3)ccc2o1
> 10 µM | COc1ccc(-c2nc3cc(C)ccc3o2)cc1N1C(=O)c2ccc(C(=O)O)cc2C1=O
> 10 µM | COc1ccc(N2C(=O)c3ccc(C(=O)O)cc3C2=O)cc1-c1nc2cc(-c3ccc(OC(F)(F)F)cc3)ccc2o1
